Source: patent US20260306460A1, “COMPOSITION FOR REMOVING AND INHIBITING SENESCENT CELLS, AND USES THEREOF” (LIFECEUTIX CO., LTD., priority 2023, published 2026)

Tests used:
[1] = system: naturally aged C57BL6J mice; experiment: Serum IL6 and MCP1 (ELISA) in naturally aged mice, Example 21-5; format: in vivo, mouse; conditions: untreated aged = 100, LX-5701 360 mg/kg po, LX-2101 20 mg/kg ip, LX-2102 10 mg/kg ip, daily 21 days
Procedure: 22-month-old female C57BL6J mice (KRIBB Laboratory Animal Resource Center) were acclimated to the experimental environment for one week, after which the aged mice were randomly assigned to experimental and control groups. Eight-week-old, non-aged mice served as controls. LX-403 was mixed in a 10% ethanol solution of PEG400 and administered orally at a concentration of 25 mg/kg daily for 21 days, or administered to the skin, joints, or eyes at a concentration of 1 μM. LX-1801 was mixed in distilled water with 4% DMSO, 30% PEG300, and 5% Tween80 and administered to the skin, joints, or eyes at a concentration of 0.4 μM daily for 21 days. LX-2001 was mixed in PBS and administered to the skin, joints, or eyes at a concentration of […] daily for 21 days. LX-2002 was mixed in distilled water with 4% DMSO, 30% PEG300, and 5% Tween80 and administered to the skin, joints, or eyes at a concentration of 2 μM daily for 21 days. […] LX-2005 was mixed in distilled water with 4% DMSO, 30% PEG300, and 5% Tween80 and administered to the skin, joints, or eyes at a concentration of 90 μM daily for 21 days. LX-2007 was mixed in distilled water with 4% DMSO, 30% PEG300, and 5% Tween80 and administered to the skin, joints, or eyes at a concentration of 90 μM daily for 21 days. […] LX-3002 was mixed in distilled water with 4% DMSO, 30% PEG300, and 5% Tween80 and administered orally at a concentration of 10 mg/kg daily for 21 days. […] LX-5411 was mixed in 5% PBS and administered orally at a concentration of 10 mg/kg daily for 21 days or administered to the skin, joints, or eyes at a concentration of 3 μM. LX-5701 was mixed in PBS and administered orally at a concentration of 360 mg/kg daily for 21 days. LX-6807 was mixed in saline and administered intraperitoneally at a concentration of 1 mg/kg daily for 21 days. LX-2101 or LX-2102 was mixed in PBS solution with 5% DMSO and administered intraperitoneally at a concentration of 20 mg/kg or 10 mg/kg, respectively, daily for 21 days. The control group received only the solution in the same volume. After the end of drug administration, the methods described in each example below were performed.
The amounts of IL6 and MCP1, senescence-associated secretory factors (SASPs), in serum collected from mice were measured using an enzyme-linked immunosorbent assay (ELISA Kit, R&D Systems).

[2] = system: doxorubicin-induced aged C57BL6J mice; experiment: Thrombosis (Serpine1, Plau, TIMP1 mRNA, tail bleeding time) in doxorubicin-aged mice, Example 22-10, Table 39; format: in vivo, mouse; conditions: for Plau mRNA / Serpine1 mRNA / TIMP1 mRNA: qRT-PCR, doxorubicin-induced aged mice, amount after aging calculated as 100%; for Tail amputation bleeding time: tail incised 5 mm from the tip, saline 37° C., untreated 51 (±3.6)
Procedure: Eight-week-old male C57BL6J mice (KRIBB Laboratory Animal Resource Center) were acclimated to the experimental environment for one week. Afterwards, the anticancer agent doxorubicin was administered intraperitoneally at a concentration of 10 mg/kg, inducing aging for more than 10 days. The aging-induced mice were randomly assigned to experimental and control groups. LX-403 was mixed with a 10% ethanol solution of PEG400 and administered orally at a concentration of 25 mg/kg or intradermally at a concentration of 1 μM for 21 days. LX-1801 was mixed in distilled water with 4% DMSO, 30% PEG300, and 5% Tween80 and administered intradermally at a concentration of 0.4 μM daily for 21 days. LX-2001 was mixed in PBS and administered intradermally at a concentration of 2 μM daily for 21 days. LX-2002 was mixed in distilled water with 4% DMSO, 30% PEG300, and 5% Tween80 and administered intradermally at a concentration of 2 μM daily for 21 days. […] LX-2005 was mixed in distilled water with 4% DMSO, 30% PEG300, and 5% Tween80 and administered intradermally at a concentration of 90 μM daily for 21 days. LX-2007 was mixed in distilled water with 4% DMSO, 30% PEG300, and 5% Tween80 and administered intradermally at a concentration of 90 μM daily for 21 days. […] LX-3002 was mixed in distilled water with 4% DMSO, 30% PEG300, and 5% Tween80 and administered orally at a concentration of 10 mg/kg daily for 21 days. […] LX-5411 was mixed in 5% phosphate-buffered saline (PBS) and administered orally at a concentration of 10 mg/kg daily for 21 days or intradermally at a concentration of 3 μM. LX-5701 was mixed in PBS and administered orally at a concentration of 360 mg/kg daily for 21 days. LX-6807 was mixed in saline and administered intraperitoneally at a concentration of 1 mg/kg daily for 21 days. The control group received only the solution in the same volume. After the end of drug administration, the methods described in each example below were performed.
Using cDNA synthesized using the same method as in Example 7-6 of WO2023-085787 A1, qRT-PCR was performed and analyzed for the liver-produced senescence-associated secretory factor (SASP) and hemostasis-related factors like Serpine1 (PAI1), Plau (Urokinase), and TIMP1. To determine whether the treatment affects in vivo hemostasis, tail bleeding time was analyzed in mice induced to age by chemotherapy. Specifically, for tail bleeding analysis, mice were anesthetized, and the tail was incised 5 mm from the tip with a razor blade. The bleeding tail was then placed in a 15 ml test tube containing saline preheated to 37° C., and the time until blood flow stopped was measured. The bleeding time was determined when bleeding stopped for 10 seconds. […] The qPT-PCR results were compared with the amounts of each factor after aging was induced, calculating the amount of each factor as 100% and then treating it with the test compound.

[3] = system: SHR/Izm rats; experiment: Geriatric hypertension in SHR/Izm rats (p16 mRNA, blood pressure), Example 30, Table 54; format: in vivo, rat; conditions: for Blood pressure: tail cuff, untreated 195 (±13.3); for p16 mRNA: thoracic aorta, untreated 100%
Procedure: Ten-week-old male SHR/Izm rats (SLC), a model of essential hypertension, were acclimated to the experimental environment for one week. […] The control group received only the solution in the same volume. After drug administration, the blood pressure of the experimental animals was measured, and RNA was extracted from the thoracic aorta in the same manner as in Example 7-2 of WO2023-085787 A1. The synthesized cDNA was used for qRT-PCR. Blood pressure measurements were performed three times using a blood pressure monitor (IITC) after the animals were allowed to rest for approximately 10 minutes in a measuring holder with a cuff attached to the caudal vein. […] The mRNA levels after aging were calculated as 100% and compared with the mRNA levels of p16 after treatment with the test compound.

Molecule	IL6 [1]	MCP1 [1]	Plau mRNA [2]	Serpine1 mRNA [2]	TIMP1 mRNA [2]	Tail amputation bleeding time [2]	Blood pressure [3]	p16 mRNA [3]
CC1(C)CC[C@]2(NC(=O)C(C)(F)F)CC[C@]3(C)[C@H](C(=O)C=C4[C@@]5(C)C=C(C#N)C(=O)C(C)(C)[C@@H]5CC[C@]43C)[C@@H]2C1 [LX-2101, Omaveloxolone]	49 (±21.8) %	58 (±9.5) %						
COC(=O)[C@]12CCC(C)(C)C[C@H]1[C@H]1C(=O)C=C3[C@@]4(C)C=C(C#N)C(=O)C(C)(C)[C@@H]4CC[C@@]3(C)[C@]1(C)CC2 [LX-2102, Bardoxolone methyl]	58 (±16.1) %	61 (±14.0) %						
CCCC\C=C/C=C/C=C\CCCCCCCC(=O)O [LX-2707, Punicic acid]			65 (±1.8) %	52 (±3.5) %	46 (±1.5) %	80 (±4.3) sec	160.1 (±23.1) mmHg	64 (±8.5) %
O=C1C2CCN(CC2)C1CNC(=O)C(F)(F)F (stereo not drawn) [LX-5701]	68 (±14.1) %	62 (±9.8) %	53 (±13.9) %	45 (±20.1) %	53 (±11.2) %	89 (±15.2) sec	159.8 (±15.5) mmHg	73 (±5.2) %
Cc1cccc([C@H](C)c2cnc[nH]2)c1C [LX-6807, Dexmedetomidine]			45 (±3.6) %	31 (±1.9) %	59 (±1.9) %	93 (±6.4) sec	157.8 (±19.3) mmHg	66 (±5.0) %
Tocofersolan [LX-3001]			69 (±2.2) %	76 (±2.1) %	73 (±3.1) %	72 (±2.6) sec	172.9 (±14.6) mmHg	71 (±3.6) %
